Values of other authors, collected in PMC2600787, “Flanking p10 contribution and sequence bias in matrix based epitope prediction: revisiting the assumption of independent binding pockets” (BMC Structural Biology, 2008).

Biological target: HLA-DRB3*0101 (HLA-DR52a) (Homo sapiens, UniProt P01903+P79483)
Settings: earlier structural and binding studies; crystallography CSP, unpublished; ref not given
From the text: Results from structural and binding studies using the peptide […] in complex with HLA-DRB3*0101 (HLA-DR52a) show a contribution from position p10. 24-[…]-39, from the N-terminus of human […] is a major ligand of DR52a. A natural variant of the epitope widely distributed in the population is 24-[…]-39. The Leu33/Pro33 dimorphism is the basis of the unidirectional alloimmune posttransfusion thrombocytopenia purpura (PTP) and fetal-maternal alloimmune thrombocytopenia (FMAIT), severe blood disorders in some DR52a subjects homozygous in Pro33 [[2 ...

binding to DR52a (in words) | Substance
major ligand | AWCSDEALPLGSPRCD [peptide from the N-terminus of human integrin α2βIIIa, a major ligand of DR52a]
does not bind | AWCSDEALPPGS [shorter Pro33 integrin peptide]
does not bind | AWCSDEALPPGSPRCD
has been demonstrated to bind | AWCSDEALPPLS [Pro33 integrin peptide with leucine replacing glycine at position 10]

System: HLA-DR1
Parameters: method as in 2 sources, ref Geluk et al. [32] ||| ref [32] = [32]; PMID 9753297; doi:10.2337/diabetes.47.10.1594; Geluk A van Meijgaarden KE Schloot NC Drijfhout JW Ottenhoff TH Roep BO HLA-DR binding analysis of peptides from islet antigens in IDDM Diabetes 1998 47 1594 1601 9753297 10.2337/diabetes.47.10.1594; pIC50exp: unit not given here
Settings: according to IC50 binding measurements; ref [32]
From the text: Anchor residues at dominant pockets p1, p4, p6 and p9 are as expected for DR1 [12].

binding to DR1 (in words) | Substance
strong binder | SCSKVDVNYAFLHATDLLPA [peptide 9, 20-mer peptide from GAD65]

Same assay, conditions: experimental binding affinity to HLA-DR1; logarithmic transform of IC50; 20-mer peptides from GAD65 (1 through 100) and ICA69 (101 and above), pruned to remove poor binders; ref Geluk et al. [32]

pIC50exp | Substance
1.10 | 115: 20-mer peptide from ICA69 (VETFRHRAISDTWLTVNRME) [compound 115]
0.10 | AIHESFKGYQPYEFTTLKSL [peptide 126, 20-mer peptide from ICA69]
0.22 | DPDLYKQMEKFRKVQTQVRL [peptide 119, 20-mer peptide from ICA69]
0.00 | FRKVQTQVRLAKKNFDKLKM [peptide 120, 20-mer peptide from ICA69]
-0.60 | LQDVMNILLQYVVKSFDRST [peptide 12, 20-mer peptide from GAD65]
0.05 | LVSATAGTTVYGAFDPLLAV [peptide 33, 20-mer peptide from GAD65]
1.10 | QCRTEYRGALLWMKDVSQEL [peptide 117, 20-mer peptide from ICA69]
0.52 | RKESSSFKTEDGKSILSALD [peptide 132, 20-mer peptide from ICA69]
1.52 | SCSKVDVNYAFLHATDLLPA [peptide 9, 20-mer peptide from GAD65]
1.00 | SVVNKMQQRYWETKQAFIKA [peptide 103, 20-mer peptide from ICA69]
-0.77 | YVVKSFDRSTKVIDFHYPNE [peptide 13, 20-mer peptide from GAD65]

Substance | pIC50exp
MASPGSGFWSFGSEDGSGDS [peptide 1, 20-mer peptide from GAD65] | -0.70
